Source: PubChem BioAssay (NCI)
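Method: 48-hour compound exposure of cells in 96-well plates, five concentrations, linear interpolation of endpoints. TGI: concentration producing complete growth inhibition.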

The compounds below were run on HT29 colon (assay: NCI anticancer screen, dose series, 48 h).
For `Cc1cc2c(s1)C(N)CC2=O` (stereo not drawn), the TGI was > 100 µM.
`Cc1cc2c(O)c(c1)COCc1cc(C)cc(c1O)COCc1cc(C)cc(c1O)COC2` was tested, and the TGI was > 100 µM.
With `OC(c1ccoc1)c1cc2ccccc2s1` (stereo not drawn) the TGI was > 10 µM.

These compounds were tested on PC-3 prostate (assay: NCI anticancer screen, dose series, 48 h).
`O=C(CSc1nnc(SCC(=O)NN=C2CCCCC2)s1)NN=C1CCCCC1` was tested, and the TGI was > 100 µM.
`Oc1ccc(O)c(Cc2ccccc2)c1` was tested, and the TGI was > 100 µM.
With `Cc1cc2c(s1)C(N)CC2=O` (stereo not drawn) the TGI was > 100 µM.
`Cc1cc2c(O)c(c1)COCc1cc(C)cc(c1O)COCc1cc(C)cc(c1O)COC2` was tested, and the TGI was > 100 µM.
`OC(c1ccoc1)c1cc2ccccc2s1` (stereo not drawn) was tested, and the TGI was > 10 µM.

The compounds below were run on HL-60(TB) leukemia (assay: NCI anticancer screen, dose series, 48 h).
In the case of `Oc1ccc(O)c(Cc2ccccc2)c1`, the TGI was 4.14 µM.
With `Cc1cc2c(s1)C(N)CC2=O` (stereo not drawn) the TGI was > 100 µM.
In the case of `Cc1cc2c(O)c(c1)COCc1cc(C)cc(c1O)COCc1cc(C)cc(c1O)COC2`, the TGI was > 100 µM.
With `OC(c1ccoc1)c1cc2ccccc2s1` (stereo not drawn) the TGI was > 10 µM.

The compounds below were run on SNB-75 CNS (assay: NCI anticancer screen, dose series, 48 h).
`O=C(CSc1nnc(SCC(=O)NN=C2CCCCC2)s1)NN=C1CCCCC1` was tested, and the TGI was > 100 µM.
In the case of `Cc1cc2c(s1)C(N)CC2=O` (stereo not drawn), the TGI was > 100 µM.
With `Cc1cc2c(O)c(c1)COCc1cc(C)cc(c1O)COCc1cc(C)cc(c1O)COC2` the TGI was > 100 µM.
For `OC(c1ccoc1)c1cc2ccccc2s1` (stereo not drawn), the TGI was > 10 µM.

Each compound was assayed on MDA-MB-231 breast (assay: NCI anticancer screen, dose series, 48 h).
For `O=C(CSc1nnc(SCC(=O)NN=C2CCCCC2)s1)NN=C1CCCCC1`, the TGI was > 100 µM.
With `Oc1ccc(O)c(Cc2ccccc2)c1` the TGI was 46.6 µM.
For `Cc1cc2c(s1)C(N)CC2=O` (stereo not drawn), the TGI was > 100 µM.
In the case of `Cc1cc2c(O)c(c1)COCc1cc(C)cc(c1O)COCc1cc(C)cc(c1O)COC2`, the TGI was > 100 µM.
With `OC(c1ccoc1)c1cc2ccccc2s1` (stereo not drawn) the TGI was > 10 µM.

The compounds below were run on HCT-15 colon (assay: NCI anticancer screen, dose series, 48 h).
For `O=C(CSc1nnc(SCC(=O)NN=C2CCCCC2)s1)NN=C1CCCCC1`, the TGI was > 100 µM.
For `Oc1ccc(O)c(Cc2ccccc2)c1`, the TGI was 29.1 µM.
For `Cc1cc2c(s1)C(N)CC2=O` (stereo not drawn), the TGI was > 100 µM.
With `Cc1cc2c(O)c(c1)COCc1cc(C)cc(c1O)COCc1cc(C)cc(c1O)COC2` the TGI was > 100 µM.
In the case of `OC(c1ccoc1)c1cc2ccccc2s1` (stereo not drawn), the TGI was > 10 µM.

These compounds were tested on K-562 leukemia (assay: NCI anticancer screen, dose series, 48 h).
`O=C(CSc1nnc(SCC(=O)NN=C2CCCCC2)s1)NN=C1CCCCC1` was tested, and the TGI was > 100 µM.
For `Oc1ccc(O)c(Cc2ccccc2)c1`, the TGI was 25.8 µM.
For `Cc1cc2c(s1)C(N)CC2=O` (stereo not drawn), the TGI was > 100 µM.
With `Cc1cc2c(O)c(c1)COCc1cc(C)cc(c1O)COCc1cc(C)cc(c1O)COC2` the TGI was > 100 µM.
For `OC(c1ccoc1)c1cc2ccccc2s1` (stereo not drawn), the TGI was > 10 µM.

What follows are compounds tested on SR leukemia (assay: NCI anticancer screen, dose series, 48 h).
For `O=C(CSc1nnc(SCC(=O)NN=C2CCCCC2)s1)NN=C1CCCCC1`, the TGI was > 100 µM.
`Oc1ccc(O)c(Cc2ccccc2)c1` was tested, and the TGI was 14.5 µM.
With `Cc1cc2c(s1)C(N)CC2=O` (stereo not drawn) the TGI was > 100 µM.
In the case of `Cc1cc2c(O)c(c1)COCc1cc(C)cc(c1O)COCc1cc(C)cc(c1O)COC2`, the TGI was > 100 µM.
For `OC(c1ccoc1)c1cc2ccccc2s1` (stereo not drawn), the TGI was > 10 µM.

Each compound was assayed on 786-0 renal (assay: NCI anticancer screen, dose series, 48 h).
For `O=C(CSc1nnc(SCC(=O)NN=C2CCCCC2)s1)NN=C1CCCCC1`, the TGI was > 100 µM.
In the case of `Oc1ccc(O)c(Cc2ccccc2)c1`, the TGI was 33.7 µM.
With `Cc1cc2c(s1)C(N)CC2=O` (stereo not drawn) the TGI was > 100 µM.
`Cc1cc2c(O)c(c1)COCc1cc(C)cc(c1O)COCc1cc(C)cc(c1O)COC2` was tested, and the TGI was > 100 µM.
`OC(c1ccoc1)c1cc2ccccc2s1` (stereo not drawn) was tested, and the TGI was > 10 µM.

Each compound was assayed on SK-OV-3 ovarian (assay: NCI anticancer screen, dose series, 48 h).
`O=C(CSc1nnc(SCC(=O)NN=C2CCCCC2)s1)NN=C1CCCCC1` was tested, and the TGI was > 100 µM.
With `Oc1ccc(O)c(Cc2ccccc2)c1` the TGI was > 100 µM.
With `Cc1cc2c(s1)C(N)CC2=O` (stereo not drawn) the TGI was > 100 µM.
With `Cc1cc2c(O)c(c1)COCc1cc(C)cc(c1O)COCc1cc(C)cc(c1O)COC2` the TGI was > 100 µM.
`OC(c1ccoc1)c1cc2ccccc2s1` (stereo not drawn) was tested, and the TGI was > 10 µM.

What follows are compounds tested on IGROV1 ovarian (assay: NCI anticancer screen, dose series, 48 h).
In the case of `O=C(CSc1nnc(SCC(=O)NN=C2CCCCC2)s1)NN=C1CCCCC1`, the TGI was > 100 µM.
With `Cc1cc2c(s1)C(N)CC2=O` (stereo not drawn) the TGI was > 100 µM.
In the case of `OC(c1ccoc1)c1cc2ccccc2s1` (stereo not drawn), the TGI was > 10 µM.

What follows are compounds tested on M14 melanoma (assay: NCI anticancer screen, dose series, 48 h).
With `O=C(CSc1nnc(SCC(=O)NN=C2CCCCC2)s1)NN=C1CCCCC1` the TGI was > 100 µM.
`Oc1ccc(O)c(Cc2ccccc2)c1` showed a TGI of 73.9 µM.
With `Cc1cc2c(s1)C(N)CC2=O` (stereo not drawn) the TGI was > 100 µM.
For `Cc1cc2c(O)c(c1)COCc1cc(C)cc(c1O)COCc1cc(C)cc(c1O)COC2`, the TGI was > 100 µM.
With `OC(c1ccoc1)c1cc2ccccc2s1` (stereo not drawn) the TGI was > 10 µM.

These compounds were tested on SF-539 CNS (assay: NCI anticancer screen, dose series, 48 h).
For `O=C(CSc1nnc(SCC(=O)NN=C2CCCCC2)s1)NN=C1CCCCC1`, the TGI was > 100 µM.
For `Oc1ccc(O)c(Cc2ccccc2)c1`, the TGI was 23 µM.
With `Cc1cc2c(s1)C(N)CC2=O` (stereo not drawn) the TGI was > 100 µM.
For `Cc1cc2c(O)c(c1)COCc1cc(C)cc(c1O)COCc1cc(C)cc(c1O)COC2`, the TGI was > 100 µM.
For `OC(c1ccoc1)c1cc2ccccc2s1` (stereo not drawn), the TGI was > 10 µM.

The compounds below were run on SN12C renal (assay: NCI anticancer screen, dose series, 48 h).
`O=C(CSc1nnc(SCC(=O)NN=C2CCCCC2)s1)NN=C1CCCCC1` was tested, and the TGI was > 100 µM.
`Oc1ccc(O)c(Cc2ccccc2)c1` was tested, and the TGI was 38.6 µM.
In the case of `Cc1cc2c(s1)C(N)CC2=O` (stereo not drawn), the TGI was > 100 µM.
In the case of `Cc1cc2c(O)c(c1)COCc1cc(C)cc(c1O)COCc1cc(C)cc(c1O)COC2`, the TGI was > 100 µM.
With `OC(c1ccoc1)c1cc2ccccc2s1` (stereo not drawn) the TGI was > 10 µM.

The compounds below were run on NCI-H226 lung (assay: NCI anticancer screen, dose series, 48 h).
In the case of `O=C(CSc1nnc(SCC(=O)NN=C2CCCCC2)s1)NN=C1CCCCC1`, the TGI was > 100 µM.
For `Oc1ccc(O)c(Cc2ccccc2)c1`, the TGI was 57.2 µM.
For `Cc1cc2c(O)c(c1)COCc1cc(C)cc(c1O)COCc1cc(C)cc(c1O)COC2`, the TGI was > 100 µM.
`OC(c1ccoc1)c1cc2ccccc2s1` (stereo not drawn) was tested, and the TGI was > 10 µM.
